How the values were obtained:
[1] = Surface Plasmon Resonance (SPR) on heparin-functionalized chips; type: binding
Description: Surface Plasmon Resonance (SPR): Affinity experiments between inhibitors and heparin were performed on an Open SPR™(Nicoya). All measurements were performed at 25° C. using a working buffer of 25 mM Tris at pH 7.5. Biotin-loaded sensor chips (NICOYA) were further functionalized with streptavidine (50 μg/mL) and later with biotin-heparin (50 μg/mL). Binding experiments to heparin were performed by injecting inhibitors at desired concentrations and at a rate of 40 μL/min. Between binding assays, the surface was regenerated by exposure to an injection of 10 mM HCl. Fitting has been performed by Trace Drawer software using a ‘one-to-one two-state algorithm’, which considers a 1:1 binding with a further equilibrium like a conformational change. Results obtained from three independent experiments at three different concentrations of the ligands were fit globally to render the corresponding on/off rate constants and the apparent dissociation constants (KD^app Table 1, as shown below).
Binding of the spermine derivatives to the heparin target. Surface Plasmon Resonance (SPR) on heparin-functionalized chips were used to determine the apparent dissociation constant of selected molecules (KD^app, Table 1).

[2] = tested on: freshly extracted mouse blood with Hep; experiment: Ex vivo blood coagulation assay; settings: for reversal of anticoagulant effect of Hep in mouse blood (clot formation): Hep 130 μM, various ligand concentrations, 15 minutes, FIG. 3A
Description: Ex vivo blood coagulation assays: Freshly collected mouse blood was collected and directly used without further treatment. 300 μL aliquots were prepared. To them, Hep (130 μM), and various concentration of ligand (3AC or 3FF) were added. The samples of the different conditions were added to an Eppendorf tube and a picture was taken after 15 minutes. The clot formation was confirmed by turning around the Eppendorf vials.
Reversing the anticoagulant activity of heparin: In order to check the efficacy of the antidotes in a more representative environment, 3FF and 3AC were tested in real blood coagulation assays. Thus, it has been monitored the coagulation of freshly extracted mouse blood in the absence or presence of Hep, and upon addition of different concentrations of 3FF and 3AC.

[FXa-Hep-ATIII] complex = Blood coagulation factor in vitro enzymatic assay (FXa/ATIII/Hep, chromogenic peptide hydrolysis); type: biochemical, human; settings: for in vitro potency as Hep antidote (recovery of FXa activity), rank order: 1 μM of each binder, Hep 0.1 IU/mL, FIG. 2B; for activity as Hep antidote in the enzymatic assay compared with ciraparantag: percent hydrolysis at 30 min, FIG. 2C
Description: Blood coagulation factor in vitro enzymatic assays: Recombinant antithrombin Ill and coagulation Factor Xa were obtained from the Berichrom Heparin test, supplied by SIEMENS. Following the indications of the test kit, stock solutions were prepared as follows: Human antithrombin III (1 IU/mL), Factor Xa reagent (0.4 μg/mL, human plasma fraction with the additives Tris, sodium chloride and EDTA) and a chromogenic substrate specific for factor Xa (4 mM of Z-D-Leu-Gly-ArgANBA-methyl amide). On the other hand, 4-nitroaniline (Sigma Aldrich) was added to the substrate solution at a concentration of 1.6 mM and was used as internal standard to quantify the hydrolysis of the chromogenic substrate. Heparin (sodium salt from porcine intestinal mucosa, polydisperse, from 6000 to 30000 Daltons) was purchased from Sigma-Aldrich. All compounds were dissolved in mili-Q water at the desired stock concentrations prior to start the assays and kept at 4° C. Various concentrations of the ligand, heparin (0.1 IU/mL), human antithrombin Ill solution (3.5 μL) and Factor Xa reagent solution (35 μL) were added in order to an Eppendorf and brought to a total volume of 145 μL. Then, 20 μL of Reagent Substrate solution was added to start the experiment and the mixture was vigorously shaken at 25° C. 20 μL samples were taken at minutes 5/10/15/20/30/50/80/120, diluted with 40 μL of acetic acid (20% v/v), and injected in the analytical HPLC. The gradient ranged from 5% ACN (0.1% formic acid) in water (0.1% formic acid) to 100% ACN in 24 minutes using a 15×4.6 mm KROMAPHASE C18 5.0 μm column (retention time of cleaved chromophore 9.1 min, retention time of chromogenic substrate 13.9 min, retention time of 4-nitroaniline 15.4 min). Concentrations of reagents have been adjusted compared with previous studies with the intention to slow down the total exhaustion of peptide substrate. In this way the activity can be more carefully modulated and any change is easier to detect. FXa/ATIII activity was represented as percent of hydrolysis, which was calculated from the normalized area of cleaved peptide at 405 nm at each corresponding time point. Experiment carried out in absence of heparin was considered as maximum of activity while experiment with heparin and no ligand was considered as negative control (maximum inhibition of FXa by heparin). Concentration of heparin was selected for the measurement to render a significant inhibition within experimental time, while allowing the reaction to proceed.
In vitro inhibition of heparin activity. The effect of the binders as Hep antidotes can be tested in vitro using an enzymatic reaction related to the blood coagulation process (FIG. 2A). This test employs human recombinant coagulation factor Xa (FXa) and antithrombin III (ATIII), with the synthetic peptide Z-D-LGR-N(Me)ANBA as the substrate of the FXa protease to mimic the prothrombin to thrombin transformation that triggers blood coagulation. Heparin forms a ternary complex with ATIII and FXa with a low hydrolytic activity, as a model for the anticoagulation effect of Hep. The addition of an efficient Hep binder dissociates the [FXa-Hep-ATIII] complex, thus releasing the active form of FXa that cleaves the substrate. The peptide hydrolysis can be readily monitored by analytical HPLC thanks to the ANBA chromophore, as an accurate measurement of the reaction kinetics.
In parallel experiments, the addition of equal concentration (1 μM) of each of the binders produces a different level of recovery of the FXa activity. […] Actually, several selected molecules derived from spermine were tested in the enzymatic assay (FIG. 2C) most of them showing activity in the reversal of the heparin action.

heparinized mice = experiment: In vivo tail transection assay with mice; design: species or system mouse; settings: for reversal of Hep activity in vivo (bleeding of heparinized mice): Hep 100 IU/kg i.v. followed by 2.2 or 4.4 mg/kg, blood collected 10 minutes, FIG. 3B; for blood loss of heparinized mice at the highest doses: Hep 100 IU/kg, highest dose (4.4 mg/kg)
Description: In vivo tail transection assays with mice: Eight-weeks old CD-1 male mice (Janvier-Labs) were used for the study. Animals were housed under a 12 h light: dark cycle in an environmentally controlled room and free access to water and food. Mice were randomly assigned into 6 groups (n=6 for each group). Animals were anesthetized by i.p. injections of 0.465 mg/kg xylazine (Rompun, Bayer DVM) and 1.395 mg/kg ketamine (Imalgene 100, Merial Laboratorios). After anesthetizing them, different solutions were injected intravenously according to the assigned group: Saline group (only saline was given), Hep group (Hep injection, 100 IU/kg), 3AC (two groups, Hep injection followed by injection of 3AC at 2.2 mg/kg or 4.4 mg/kg) and 3FF (two groups, Hep injection followed by injection of 3FF at 2.2 mg/kg or 4.4 mg/kg). Two additional control groups (n=3) were included in which only the ligand (3AC or 3FF) at the highest dose (4.4 mg/kg) was injected. At 5 minutes after injections, tails were transected at 5 mm from the tip and immediately inserted in a tube containing 1 ml of saline buffer immersed in a water bath at 37° C., where the blood draining out of the wound was collected for 10 minutes. The blood draining out from the wound was collected in each tube. Tails were let bleed during 10 minutes. The total blood volume in each tube was quantified by spectrophotometry (absorbance at 414 nm) from a standard curve that was constructed with known volumes of blood hemoglobin concentration and corresponding absorbance value. Statistical analysis of the data was done with Kaleida Graph 4.5.4 using ANOVA.
3FF and 3AC were tested in an in vivo coagulation model. It was thus performed the tail transection assay with mice after consecutive injection of Hep, and the drugs at two different doses each (FIG. 3B). The control groups injecting saline or Hep, and those corresponding to just the drugs were also included.

Row | SMILES | affinity to Hep compared with ciraparantag [1] | reversal of anticoagulant effect of Hep in mouse blood (clot formation) [2] | ex vivo antidote quality, 3AC compared with 3FF ([2]; equal doses, qualitative) | in vitro potency as Hep antidote (recovery of FXa activity), rank order ([FXa-Hep-ATIII] complex) | activity as Hep antidote in the enzymatic assay compared with ciraparantag ([FXa-Hep-ATIII] complex) | reversal of Hep activity in vivo (bleeding of heparinized mice) (heparinized mice) | blood loss of heparinized mice at the highest doses (heparinized mice) | in vivo reversal potency, 3AC compared with 3FF (heparinized mice; tail transection, mice)
1 | Oc1ccccc1CNCCCNCCCCNCCCNCc1ccc2c(c1)Cc1ccccc1-2 [Compound 3AC, 2-(16-(9H-fluoren-2-yl)-2,6,11,15-tetraazahexadecyl)phenol] | higher affinity to Hep than ciraparantag | able to revert the anticoagulant effect of Hep in a dose-response manner | better antidote than 3FF | <3AC | even more potent | efficient antidotes of Hep also in vivo, strongly reducing the bleeding of heparinized mice | reversed to values very similar to those of the control group injected with saline | more potent reversal agent than 3FF
2 | Oc1ccccc1CNCCCNCCCCNCCCNCc1c(O)ccc2ccccc12 [Compound 3AF, 1-(16-(2-hydroxyphenyl)-2,6,11,15-tetraazahexadecyl)naphthalen-2-ol] |  |  |  | 3AF (open circles)<3FF |  |  |  | 
3 | Oc1ccccc1CNCCCNCCCCNCCCNCc1ccc2ccccc2c1O [Compound 3AG, 2-(16-(2-hydroxyphenyl)-2,6,11,15-tetraazahexadecyl)naphthalen-1-ol] |  |  |  | 3AG (rhombuses)<3AF |  |  |  | 
4 | Oc1ccccc1CNCCCNCCCCNCCCNCc1cccc2ccccc12 [Compound 3AL, 2-(16-(naphthalen-1-yl)-2,6,11,15-tetraazahexadecyl)phenol, reference compound] |  |  |  | 3AL (X symbols)≤3AG |  |  |  | 
5 | Oc1ccc2ccccc2c1CNCCCNCCCCNCCCNCc1c(O)ccc2ccccc12 [Compound 3FF, 1,1′-(2,6,11,15-tetraazahexadecane-1,16-diyl)bis(naphthalen-2-ol)] | higher affinity to Hep than ciraparantag | able to revert the anticoagulant effect of Hep in a dose-response manner |  | 3FF (inverted solid triangles)<3AC | comparable with the drug ciraparantag | efficient antidotes of Hep also in vivo, strongly reducing the bleeding of heparinized mice | reversed to values very similar to those of the control group injected with saline | 
